The source of these data is patent publication US20240245682A1, “ALPHA-V-BETA-8 INTEGRIN INHIBITORS AND USES THEREOF” (Pliant Therapeutics, Inc., priority 2022, published 2024).

Experiment in all cases: AlphaScreen proximity-based integrin binding assay with TGF-b1 LAP
What all share (conditions): values given as ranges
For orientation: Bead proximity is the source of the signal in Alpha formats.

In assay [1] the target is human integrin αVβ1 (Homo sapiens, UniProt P05556+P06756). In short, it runs like this:
(§1)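 Purified human integrin incubated with compound, TGF-b1 LAP, biotinylated anti-LAP antibody and acceptor beads for 2 h, then streptavidin donor beads 30 min, room temperature, in 50 mM Tris-HCl pH 7.5, 0.1% BSA, 1 mM CaCl2/MgCl2. AlphaScreen signal (680 nm excitation, 520-620 nm emission); IC50 by four-parameter fit.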

The target of assay [2] is human integrin αVβ6 (Homo sapiens, UniProt P06756+P18564). In short, it runs like this: as §1
In assay [3] the target is human integrin αVβ8 (Homo sapiens, UniProt P06756+P26012). In short, it runs like this:
as §1

Sequence of human integrin αVβ1 (P06756 31-992 limits assumed): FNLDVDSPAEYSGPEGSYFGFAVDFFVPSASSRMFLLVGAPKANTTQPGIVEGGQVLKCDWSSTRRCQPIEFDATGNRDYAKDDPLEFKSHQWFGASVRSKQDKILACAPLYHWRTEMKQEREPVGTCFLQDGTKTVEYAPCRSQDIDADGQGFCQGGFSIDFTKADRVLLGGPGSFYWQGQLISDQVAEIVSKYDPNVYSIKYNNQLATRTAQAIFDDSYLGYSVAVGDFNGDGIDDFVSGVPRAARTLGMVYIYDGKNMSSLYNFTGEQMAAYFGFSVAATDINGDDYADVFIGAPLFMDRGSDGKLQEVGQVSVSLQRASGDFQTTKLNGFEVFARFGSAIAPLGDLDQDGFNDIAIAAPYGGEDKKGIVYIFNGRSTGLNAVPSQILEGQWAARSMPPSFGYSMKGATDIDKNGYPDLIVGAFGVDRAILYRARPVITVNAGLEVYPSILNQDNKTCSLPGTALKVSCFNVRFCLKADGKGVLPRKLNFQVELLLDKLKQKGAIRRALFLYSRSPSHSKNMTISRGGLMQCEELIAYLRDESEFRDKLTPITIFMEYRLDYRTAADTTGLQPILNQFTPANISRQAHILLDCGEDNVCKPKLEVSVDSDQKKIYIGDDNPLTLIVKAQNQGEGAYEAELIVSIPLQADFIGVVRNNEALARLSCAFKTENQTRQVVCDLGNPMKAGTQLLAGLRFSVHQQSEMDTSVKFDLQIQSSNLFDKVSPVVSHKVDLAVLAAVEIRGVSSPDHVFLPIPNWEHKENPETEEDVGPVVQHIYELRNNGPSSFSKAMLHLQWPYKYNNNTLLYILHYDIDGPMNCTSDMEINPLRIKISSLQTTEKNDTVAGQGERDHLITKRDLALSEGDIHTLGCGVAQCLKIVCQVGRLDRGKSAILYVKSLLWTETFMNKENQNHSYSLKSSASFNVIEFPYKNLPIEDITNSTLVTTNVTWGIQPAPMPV
Sequence of human integrin αVβ1 (P05556 21-728 limits assumed): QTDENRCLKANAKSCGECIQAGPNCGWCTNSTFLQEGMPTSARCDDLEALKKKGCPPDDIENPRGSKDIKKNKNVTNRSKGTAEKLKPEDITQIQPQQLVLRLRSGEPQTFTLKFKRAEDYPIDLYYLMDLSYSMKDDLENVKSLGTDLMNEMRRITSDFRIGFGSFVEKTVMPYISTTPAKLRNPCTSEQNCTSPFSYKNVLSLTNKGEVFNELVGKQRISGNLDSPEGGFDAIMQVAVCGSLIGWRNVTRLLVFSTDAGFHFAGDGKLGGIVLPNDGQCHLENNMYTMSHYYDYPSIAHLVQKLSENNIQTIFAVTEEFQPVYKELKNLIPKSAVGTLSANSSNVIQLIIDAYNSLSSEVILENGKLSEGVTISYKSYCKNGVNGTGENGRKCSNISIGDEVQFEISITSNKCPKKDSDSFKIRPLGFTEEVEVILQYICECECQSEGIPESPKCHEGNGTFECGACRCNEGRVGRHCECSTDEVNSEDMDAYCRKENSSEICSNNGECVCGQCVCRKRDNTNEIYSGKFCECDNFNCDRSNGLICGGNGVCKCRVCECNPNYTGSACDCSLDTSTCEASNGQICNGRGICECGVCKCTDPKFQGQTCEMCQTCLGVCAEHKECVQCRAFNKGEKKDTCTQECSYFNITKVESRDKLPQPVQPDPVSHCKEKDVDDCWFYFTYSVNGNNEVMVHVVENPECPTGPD
Sequence of human integrin αVβ6 (P06756 31-992 limits assumed): as the sequence (P06756 31-992 limits assumed) above
Sequence of human integrin αVβ6 (P18564 22-707 limits assumed): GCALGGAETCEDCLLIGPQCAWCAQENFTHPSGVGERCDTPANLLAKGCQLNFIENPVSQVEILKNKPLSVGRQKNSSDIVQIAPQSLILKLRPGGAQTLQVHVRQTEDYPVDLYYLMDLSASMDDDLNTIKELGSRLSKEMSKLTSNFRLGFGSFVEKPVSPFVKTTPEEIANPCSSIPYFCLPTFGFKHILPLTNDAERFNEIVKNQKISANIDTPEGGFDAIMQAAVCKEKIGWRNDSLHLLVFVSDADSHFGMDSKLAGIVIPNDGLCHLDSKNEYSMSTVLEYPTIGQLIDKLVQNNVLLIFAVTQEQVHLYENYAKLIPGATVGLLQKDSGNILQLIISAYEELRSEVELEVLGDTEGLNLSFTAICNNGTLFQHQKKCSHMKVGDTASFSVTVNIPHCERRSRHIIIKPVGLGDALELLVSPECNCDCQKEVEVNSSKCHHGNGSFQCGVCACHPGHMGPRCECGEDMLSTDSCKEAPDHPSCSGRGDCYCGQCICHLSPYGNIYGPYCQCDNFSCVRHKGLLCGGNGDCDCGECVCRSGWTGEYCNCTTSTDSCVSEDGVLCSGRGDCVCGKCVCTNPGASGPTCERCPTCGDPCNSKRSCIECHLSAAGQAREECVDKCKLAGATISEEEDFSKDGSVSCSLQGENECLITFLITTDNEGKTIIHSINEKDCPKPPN
Sequence of human integrin αVβ8 (P06756 31-992 limits assumed): as the sequence (P06756 31-992 limits assumed) above
Sequence of human integrin αVβ8 (P26012 43-684 limits assumed): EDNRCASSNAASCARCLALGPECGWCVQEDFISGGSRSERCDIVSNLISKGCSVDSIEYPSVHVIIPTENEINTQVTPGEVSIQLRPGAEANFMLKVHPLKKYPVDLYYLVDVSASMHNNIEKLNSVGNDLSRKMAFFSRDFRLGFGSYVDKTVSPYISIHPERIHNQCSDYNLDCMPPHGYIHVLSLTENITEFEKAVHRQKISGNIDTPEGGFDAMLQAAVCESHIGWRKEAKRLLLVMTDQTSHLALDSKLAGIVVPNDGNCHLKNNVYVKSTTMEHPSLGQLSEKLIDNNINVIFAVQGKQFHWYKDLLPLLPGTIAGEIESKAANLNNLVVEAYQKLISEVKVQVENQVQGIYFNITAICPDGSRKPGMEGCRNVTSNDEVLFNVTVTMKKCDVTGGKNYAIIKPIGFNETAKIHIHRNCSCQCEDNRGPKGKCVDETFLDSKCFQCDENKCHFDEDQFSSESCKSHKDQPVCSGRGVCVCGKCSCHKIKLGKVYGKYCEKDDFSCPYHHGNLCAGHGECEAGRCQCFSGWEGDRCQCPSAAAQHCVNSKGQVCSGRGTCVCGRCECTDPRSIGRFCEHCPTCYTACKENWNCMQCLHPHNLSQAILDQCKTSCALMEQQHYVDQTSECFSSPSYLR

The IC50 is the concentration needed to halve the response being measured. As to `O=C(O)[C@H](CCOCCCCc1ccc2c(n1)NCCC2)NC(=O)C1(C(F)(F)F)CCN(CC(F)(F)F)CC1` [Compound 96, O-(4-(5,6,7,8-tetrahydro-1,8-naphthyridin-2-yl)butyl)-N-(1-(2,2,2-trifluoroethyl)-4-(trifluoromethyl)piperidine-4-carbonyl)-L-homoserine], the IC50 in assay [1] was < 50 nM; in assay [2], > 500 nM; in assay [3], < 50 nM.
Turning to `O=C(N[C@@H](CCOCCCCc1ccc2c(n1)NCCC2)C(=O)O)c1ccn(-c2ccccc2)n1` [Compound 97, N-(1-phenyl-1H-pyrazole-3-carbonyl)-O-(4-(5,6,7,8-tetrahydro-1,8-naphthyridin-2-yl)butyl)-L-homoserine], the IC50 was 50 to 150 nM in assay [1], 250 to 500 nM in assay [2] and 250 to 500 nM in assay [3].
As for `O=C(N[C@@H](CCOCCCCc1ccc2c(n1)NCCC2)C(=O)O)c1cnn(-c2ccccc2)c1` [Compound 98, N-(1-phenyl-1H-pyrazole-4-carbonyl)-O-(4-(5,6,7,8-tetrahydro-1,8-naphthyridin-2-yl)butyl)-L-homoserine], the IC50 in assay [1] was 50 to 150 nM; in assay [2], > 500 nM; in assay [3], 250 to 500 nM.
As to `O=C(N[C@@H](CCOCCCCc1ccc2c(n1)NCCC2)C(=O)O)c1ccnn1-c1ccccc1` [Compound 99, N-(1-phenyl-1H-pyrazole-5-carbonyl)-O-(4-(5,6,7,8-tetrahydro-1,8-naphthyridin-2-yl)butyl)-L-homoserine], the IC50 in assay [1] is < 50 nM; in assay [2], < 50 nM; in assay [3], 50 to 150 nM.
Turning to `O=C(O)[C@H](CCOCCCCc1ccc2c(n1)NCCC2)NC(=O)C1(C(F)(F)F)CCOCC1` [Compound 100, O-(4-(5,6,7,8-tetrahydro-1,8-naphthyridin-2-yl)butyl)-N-(4-(trifluoromethyl)tetrahydro-2H-pyran-4-carbonyl)-L-homoserine], the IC50 in assay [1] is < 50 nM; in assay [2], 50 to 150 nM; in assay [3], < 50 nM.
As to `Cc1ncnc(Cl)c1C1(C(=O)NC(CCOCCCCc2ccc3c(n2)NCCC3)C(=O)O)CC1` (stereo not drawn) [Compound 101, N-(1-(4-chloro-6-methylpyrimidin-5-yl)cyclopropane-1-carbonyl)-O-(4-(5,6,7,8-tetrahydro-1,8-naphthyridin-2-yl)butyl)homoserine], the IC50 in assay [1] is < 50 nM; in assay [2], > 500 nM; in assay [3], < 50 nM.
`Cc1ncnc(O)c1C1(C(=O)N[C@@H](CCOCCCCc2ccc3c(n2)NCCC3)C(=O)O)CC1` [Compound 102, N-(1-(4-hydroxy-6-methylpyrimidin-5-yl)cyclopropane-1-carbonyl)-O-(4-(5,6,7,8-tetrahydro-1,8-naphthyridin-2-yl)butyl)-L-homoserine]: the IC50 in assay [1] was 50 to 150 nM; in assay [2], > 500 nM; in assay [3], 50 to 150 nM.
For `[2H]C1([2H])C([2H])([2H])C1(C(=O)N[C@@H](CCOCCCCc1ccc2c(n1)NCCC2)C(=O)O)c1c(C)ncnc1Cl` [Compound 104, N-(1-(4-chloro-6-methylpyrimidin-5-yl)cyclopropane-1-carbonyl-2,2,3,3-d4)-O-(4-(5,6,7,8-tetrahydro-1,8-naphthyridin-2-yl)butyl)-L-homoserine], the figures for the half-inhibitory concentration (IC50) in assay [1], in assay [2] and in assay [3] were < 50 nM, > 500 nM and < 50 nM, respectively.
